≈ marks a conversion by molar mass, not a printed value.
Experiments:
[1] = biological target: T1, Nuclear receptor ROR-gamma (Homo sapiens, UniProt P51449)
T1 sequence (P51449 whole entry): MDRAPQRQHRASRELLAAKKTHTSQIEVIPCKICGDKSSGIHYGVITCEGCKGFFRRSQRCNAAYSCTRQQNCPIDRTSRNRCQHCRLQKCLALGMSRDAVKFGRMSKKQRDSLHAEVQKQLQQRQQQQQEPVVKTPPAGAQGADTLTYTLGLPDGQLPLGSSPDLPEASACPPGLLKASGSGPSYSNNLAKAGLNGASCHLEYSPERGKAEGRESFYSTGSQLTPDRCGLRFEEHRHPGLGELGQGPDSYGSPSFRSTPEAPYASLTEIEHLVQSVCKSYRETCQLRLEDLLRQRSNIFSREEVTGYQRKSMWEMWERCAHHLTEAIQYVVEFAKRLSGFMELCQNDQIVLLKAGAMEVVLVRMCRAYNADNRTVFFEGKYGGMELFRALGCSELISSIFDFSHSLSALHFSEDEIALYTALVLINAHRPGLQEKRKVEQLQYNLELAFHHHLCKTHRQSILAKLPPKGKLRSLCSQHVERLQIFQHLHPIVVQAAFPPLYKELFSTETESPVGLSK
Description: Agonist activity at human His-tagged RORgamma-LBD expressed in Sf9 cells assessed as inhibition of N-terminal biotinylated co-activator SRC1 recruitment in presence of ursolic acid measured after 60 mins by FRET assay

[2] = biological target: T1, Nuclear receptor ROR-gamma; remark: listed apart in the source
Description: Agonist activity at human ROR-gamma LBD expressed in HEK293 cells assessed as transcriptional activity in presence of ursolic acid by Gal4-luciferase reporter assay

[3] = biological target: T2, Nuclear receptor subfamily 1 group I member 2 (Homo sapiens, UniProt O75469)
T2 sequence (O75469 whole entry): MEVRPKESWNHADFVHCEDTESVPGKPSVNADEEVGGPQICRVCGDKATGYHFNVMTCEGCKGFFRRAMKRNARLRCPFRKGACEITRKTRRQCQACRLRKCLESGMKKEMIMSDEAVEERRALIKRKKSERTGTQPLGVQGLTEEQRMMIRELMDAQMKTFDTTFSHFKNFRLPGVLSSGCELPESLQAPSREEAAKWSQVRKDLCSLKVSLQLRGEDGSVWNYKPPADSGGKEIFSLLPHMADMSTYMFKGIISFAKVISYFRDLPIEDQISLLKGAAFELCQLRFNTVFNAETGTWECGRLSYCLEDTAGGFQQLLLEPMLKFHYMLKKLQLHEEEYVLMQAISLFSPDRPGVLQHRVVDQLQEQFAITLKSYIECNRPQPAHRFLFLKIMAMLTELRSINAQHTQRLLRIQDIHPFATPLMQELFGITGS
Description: Agonist activity at human PXR-gamma expressed in HEK293 cells assessed as transcriptional activity in presence of ursolic acid by Gal4-luciferase reporter assay

in vitro = details: human, hepatocytes
CYP3A4 = CYP3A4 (Homo sapiens, UniProt P08684); test: in vitro; details: probe testosterone
Description: Inhibition of CYP3A4 (unknown origin) assessed as oxidation of testosterone at 10 uM

CYP2D6 = CYP2D6 (Homo sapiens, UniProt P10635); test: in vitro; details: probe testosterone
Description: Inhibition of CYP2D6 (unknown origin) assessed as oxidation of testosterone at 10 uM

physchem = details: PBS buffer, pH 7.4
Description: Solubility of the compound in pH 7.4 PBS buffer

Sequence of CYP2D6 (P10635 whole entry): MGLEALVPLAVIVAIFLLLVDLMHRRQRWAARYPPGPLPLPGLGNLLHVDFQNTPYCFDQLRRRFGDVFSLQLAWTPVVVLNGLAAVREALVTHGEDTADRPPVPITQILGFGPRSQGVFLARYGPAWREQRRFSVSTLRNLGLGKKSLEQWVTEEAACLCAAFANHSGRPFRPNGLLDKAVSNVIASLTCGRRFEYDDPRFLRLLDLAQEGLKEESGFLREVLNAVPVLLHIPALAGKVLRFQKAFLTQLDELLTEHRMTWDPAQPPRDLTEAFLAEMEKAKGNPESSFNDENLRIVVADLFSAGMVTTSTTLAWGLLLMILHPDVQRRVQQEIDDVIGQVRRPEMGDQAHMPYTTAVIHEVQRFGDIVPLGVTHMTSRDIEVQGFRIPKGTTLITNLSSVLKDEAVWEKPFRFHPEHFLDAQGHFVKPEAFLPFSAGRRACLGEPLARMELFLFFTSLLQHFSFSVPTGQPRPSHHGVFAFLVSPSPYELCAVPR
Sequence of CYP3A4 (P08684 whole entry): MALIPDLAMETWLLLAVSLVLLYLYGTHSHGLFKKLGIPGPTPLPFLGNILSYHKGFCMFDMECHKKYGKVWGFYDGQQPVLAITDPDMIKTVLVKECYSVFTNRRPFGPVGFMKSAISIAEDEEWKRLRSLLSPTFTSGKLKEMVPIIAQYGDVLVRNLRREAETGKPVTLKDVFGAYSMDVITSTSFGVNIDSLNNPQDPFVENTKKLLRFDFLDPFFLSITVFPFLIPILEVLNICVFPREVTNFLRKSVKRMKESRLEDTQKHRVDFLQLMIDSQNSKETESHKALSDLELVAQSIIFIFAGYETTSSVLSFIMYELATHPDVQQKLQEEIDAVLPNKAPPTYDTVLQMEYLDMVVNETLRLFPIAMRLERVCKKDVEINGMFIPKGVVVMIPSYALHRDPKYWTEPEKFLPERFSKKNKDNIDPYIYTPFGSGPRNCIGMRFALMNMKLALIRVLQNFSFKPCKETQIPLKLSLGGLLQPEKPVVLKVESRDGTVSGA

Row | SMILES | EC50 [1] [nM] | EC50 [2] [nM] | EC50 [3] [nM] | hepatocyte CLint (in vitro) [µL/min/1e6 cells] | inhibition at 10 µM (CYP3A4) [%] | inhibition at 10 µM (CYP2D6) [%] | solubility (physchem) [µM]
1 | O=C(O)CC[C@H]1CN(S(=O)(=O)c2cccc(C(F)(F)F)c2)c2cc(-c3cccc(OC(F)F)c3)ccc2O1 | 10 | 278 | > 10000 | 36 | 19 | 7 | 287 (≈ 160 µg/mL)
2 | C/C(=C\c1ccc2c(c1)N(S(=O)(=O)c1cccc(C(F)(F)F)c1)C[C@H](CCC(=O)O)O2)c1ccccc1Cl |  |  | > 10000 | 22 | 7 | 13 | 309 (≈ 175 µg/mL)
3 | O=C(O)C1(C[C@H]2CN(S(=O)(=O)c3cccc(C(F)(F)F)c3)c3cc(-c4cc(F)ccc4F)ccc3O2)COC1 | 10 | 179 | 18000 |  |  |  | 201 (≈ 114 µg/mL)
4 | C/C(=C\c1ccc2c(c1)N(S(=O)(=O)c1cccc(OC(F)F)c1)C[C@H](CCC(=O)O)O2)c1c(F)cccc1Cl | 195 | 280 | 9100 | 9.4 | 9 | 2 | 248 (≈ 144 µg/mL)
5 | CC(C)c1ccc(-c2ccc3c(c2)N(S(=O)(=O)c2cccc(C(F)(F)F)c2)C[C@H](CCC(=O)O)O3)cc1 | 42 | > 10000 | > 10000 | 31 | -4 | 2 | 
6 | O=C(O)CC[C@H]1CN(S(=O)(=O)c2cccc(C(F)(F)F)c2)c2cc(-c3cc(F)ccc3F)ccc2O1 | 8 | 181 | > 10000 | 31 | 13 | 1 | 227 (≈ 120 µg/mL)
7 | O=C(O)CC[C@H]1CN(S(=O)(=O)c2cccc(C(F)(F)F)c2)c2cc(-c3cccc(Cl)c3)ccc2O1 |  |  | > 10000 |  | 24 | 0 | 
8 | C/C(=C\c1ccc2c(c1)N(S(=O)(=O)c1cccc(C(F)(F)F)c1)C[C@H](CCC(=O)O)O2)c1ccccc1C(F)(F)F | 108 | 290 | > 10000 | 23 | 18 | 2 | 260 (≈ 156 µg/mL)
9 | O=C(O)CC[C@H]1CN(S(=O)(=O)c2cccc(C(F)(F)F)c2)c2cc(-c3cc(F)ccc3Cl)ccc2O1 | 145 | 124 | > 10000 | 27 | 15 | 6 | 239 (≈ 130 µg/mL)
10 | O=C(O)CC[C@H]1CN(S(=O)(=O)c2cccc(C(F)(F)F)c2)c2cc(/C=C/c3ccc(Cl)cc3F)ccc2O1 | 342 | > 10000 | > 10000 |  |  |  | 
11 | C/C(=C\c1ccc2c(c1)N(S(=O)(=O)c1ccc(F)c(C(F)(F)F)c1)C[C@H](CCC(=O)O)O2)c1c(F)cccc1Cl | 85 | 411 | 6000 | 24 |  |  | 61 (≈ 36.7 µg/mL)
12 | O=S(=O)(c1cccc(C(F)(F)F)c1)N1C[C@H](CC2(CO)COC2)Oc2ccc(Br)cc21 |  |  | > 10000 |  |  |  | 
13 | COc1cc(S(=O)(=O)N2C[C@H](CCC(=O)O)Oc3ccc(/C=C(\C)c4c(F)cccc4Cl)cc32)ccc1F |  |  | > 10000 |  | -0.5 | 10 | 
14 | O=C(O)CC[C@H]1CN(S(=O)(=O)c2cccc(C(F)(F)F)c2)c2cc(-c3cccc(F)c3)ccc2O1 |  |  | > 10000 |  | 19 | 0 | 
15 | C[C@@H](C[C@H]1CN(S(=O)(=O)c2cccc(C(F)(F)F)c2)c2cc(-c3cc(F)ccc3F)ccc2O1)C(=O)O |  |  | > 10000 |  | 17 | 13 | 
16 | O=C(O)C1(C[C@H]2CN(S(=O)(=O)c3cccc(C(F)(F)F)c3)c3cc(-c4cc(F)cc(OC(F)F)c4)ccc3O2)CCOCC1 | 8 | 58 | 13000 | 9 | -2 | 4 | 90 (≈ 58.1 µg/mL)
17 | O=C(O)CC[C@H]1CN(S(=O)(=O)c2cccc(C(F)(F)F)c2)c2cc(-c3cccc(OCCO)c3)ccc2O1 | > 10000 | > 10000 | > 10000 |  |  |  | 

Row | SMILES | EC50 [1] [nM] | EC50 [2] [nM] | EC50 [3] [nM] | hepatocyte CLint (in vitro) [µL/min/1e6 cells] | inhibition at 10 µM (CYP3A4) [%] | inhibition at 10 µM (CYP2D6) [%] | solubility (physchem) [µM]
18 | O=C(O)CC[C@H]1CN(S(=O)(=O)c2cccc(C(F)(F)F)c2)c2cc(-c3cc(F)cc(OC(F)F)c3)ccc2O1 |  |  | > 10000 |  | 5 | -6 | 
19 | COc1cccc(-c2ccc3c(c2)N(S(=O)(=O)c2cccc(C(F)(F)F)c2)C[C@H](CCC(=O)O)O3)c1 |  |  | > 10000 | 44 | 19 | 2 | 280 (≈ 146 µg/mL)
20 | O=C(O)C1(C[C@H]2CN(S(=O)(=O)c3cccc(C(F)(F)F)c3)c3cc(-c4cc(F)ccc4F)ccc3O2)CCOCC1 | 5 | > 10000 | > 10000 | 21 | 5 | 8 | 43 (≈ 25.7 µg/mL)
21 | C/C(=C\c1ccc2c(c1)N(S(=O)(=O)c1cccc(C(F)(F)F)c1)C[C@H](CCC(=O)O)O2)c1ccccc1C |  |  |  |  | 0 | -6 | 
22 | C/C(=C\c1ccc2c(c1)N(S(=O)(=O)c1cccc(C(F)(F)F)c1)C[C@H](CCC(=O)O)O2)c1c(Cl)cccc1Cl | 435 | 487 | > 10000 | 23 | 6 | -1 | 309 (≈ 186 µg/mL)
23 | C/C(=C\c1ccc2c(c1)N(S(=O)(=O)c1ccc(F)c(C3CC3)c1)C[C@H](CCC(=O)O)O2)c1c(F)cccc1Cl | 269 | 495 | 6700 | 11 | 4 | 10 | 250 (≈ 144 µg/mL)
24 | O=C(O)CC[C@H]1CN(S(=O)(=O)c2cccc(C(F)(F)F)c2)c2cc(-c3cc(F)cc(F)c3)ccc2O1 |  |  | > 10000 | 31 | 25 |  | 277 (≈ 146 µg/mL)
25 | O=C(O)CC[C@H]1CN(S(=O)(=O)c2cccc(C(F)(F)F)c2)c2cc(-c3ccc(Cl)cc3)ccc2O1 | 27 |  |  | 38 | 14 | -2 | 15 (≈ 7.89 µg/mL)
26 | O=C(O)CC[C@H]1CN(S(=O)(=O)c2cccc(C(F)(F)F)c2)c2cc(/C=C/c3c(F)cccc3Cl)ccc2O1 | 33 | 617 | > 10000 | 26 | 33 | -5.6 | 273 (≈ 156 µg/mL)
27 | O=C(O)C1(C[C@H]2CN(S(=O)(=O)c3cccc(C(F)(F)F)c3)c3cc(-c4cccc(Cl)c4F)ccc3O2)CCOCC1 | 24 | 103 | > 10000 | 13 | 36 | 9 | 93 (≈ 57.1 µg/mL)
28 | C[C@H](C[C@H]1CN(S(=O)(=O)c2cccc(C(F)(F)F)c2)c2cc(-c3cc(F)ccc3F)ccc2O1)C(=O)O |  |  | > 10000 |  | 18 | 11 | 
29 | COc1ccccc1/C(C)=C/c1ccc2c(c1)N(S(=O)(=O)c1cccc(C(F)(F)F)c1)C[C@H](CCC(=O)O)O2 |  |  | > 10000 | 33 | 19 | 3 | 183 (≈ 103 µg/mL)
30 | O=C(O)[C@H](O)CC[C@H]1CN(S(=O)(=O)c2cccc(C(F)(F)F)c2)c2cc(-c3cc(F)ccc3F)ccc2O1 | 120 | 166 | > 10000 | 13 |  |  | 
31 | C/C(=C\c1ccc2c(c1)N(S(=O)(=O)c1cccc(C(F)(F)F)c1)C[C@H](CCC(=O)O)O2)c1ccccc1 |  |  | > 10000 | 22 | -3 | 3 | 267 (≈ 142 µg/mL)
32 | CC(C)(C[C@H]1CN(S(=O)(=O)c2cccc(C(F)(F)F)c2)c2cc(-c3cccc(Cl)c3F)ccc2O1)C(=O)O |  |  | > 10000 |  | 28.5 | 6 | 
33 | O=C(O)[C@@H](O)CC[C@H]1CN(S(=O)(=O)c2cccc(C(F)(F)F)c2)c2cc(-c3cc(F)ccc3F)ccc2O1 | 13 | 501 | > 10000 | 18 |  |  | 
34 | COc1cc(F)cc(-c2ccc3c(c2)N(S(=O)(=O)c2cccc(C(F)(F)F)c2)C[C@H](CCC(=O)O)O3)c1 |  |  | > 10000 |  |  |  | 

From ChEMBL document CHEMBL4837250, “Discovery of LYC-55716: A Potent, Selective, and Orally Bioavailable Retinoic Acid Receptor-Related Orphan Receptor-γ (RORγ) Agonist for Use in Treating Cancer” (J Med Chem, 2021)
